Results reported in patent publication US9067937B2 (priority 2012, dated 2015).
Structures can show the parent of a compound that is named as a salt.

Legend:
[1] = biological target: MELK (Homo sapiens, UniProt Q14680); assay: Kinase assay (IMAP fluorescence polarization, FITC-labeled histone H3 peptide); assay type: biochemical; conditions: 50 micro-M ATP
Outline: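 Kinase (0.8 ng/μL) reacted with 100 nM FITC-histone H3 peptide and 50 μM ATP in 20 mM HEPES, 0.3 mM MgCl2, 2 mM DTT, 0.01% Tween-20, pH 7.4, for 1 hour at room temperature. Phosphorylation read by IMAP fluorescence polarization after adding binding solution; IC50 from four-parameter fit.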

[2] = system: 22Rv1 cells; assay: Cell-based assay, anti-proliferative activity (Cell Counting Kit-8, 72 hours); set-up: species or system human; conditions: Homo sapiens, 22Rv1, 72 h, read-out: IC50 (μM) (22Rvl)
Outline: (§1)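 Cells seeded at 2,000–3,000 cells/well and exposed to candidate MELK inhibitors for 72 hours; growth measured with Cell Counting Kit-8. IC50 values calculated from the growth read-out.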

[3] = system: A549 cells; assay: as above; set-up: species or system human; conditions: Homo sapiens, A549, 72 h, read-out: IC50 (μM) (A549)
Outline: as §1

[4] = system: DU4475 cells; assay: as above; set-up: species or system human; conditions: Homo sapiens, DU-4475, 72 h, read-out: IC50 (μM) (DU4475)
Outline: as §1

[5] = system: T47D cells; assay: as above; set-up: species or system human; conditions: Homo sapiens, T47D, 72 h, read-out: IC50 (μM) (T47D)
Outline: as §1

[6] = system: HT1197 cells; assay: Cell-based assay, anti-proliferative activity, MELK-negative control (Cell Counting Kit-8, 72 hours); set-up: species or system human; conditions: Homo sapiens, HT1197, 72 h, read-out: IC50 (μM) (HTll97)
Experimental: 100 micro-L of cell suspension was seeded onto 96-well microtiter plate (ViewPlate-96FTC, PerkinElmer). The initial cell concentration of 22Rv1, T47D, A549, DU4475, and HT1197 were 3,000 cells/well, 2,000 cells/well and 2,500 cells/well, respectively. Cellular growth was determined using Cell Counting Kit-8 (DOJINDO) at 72 hours after the exposure of the candidate inhibitors. […] Accurate IC50 values were calculated as described previously.

Chain of MELK (Q14680 whole entry, looked up): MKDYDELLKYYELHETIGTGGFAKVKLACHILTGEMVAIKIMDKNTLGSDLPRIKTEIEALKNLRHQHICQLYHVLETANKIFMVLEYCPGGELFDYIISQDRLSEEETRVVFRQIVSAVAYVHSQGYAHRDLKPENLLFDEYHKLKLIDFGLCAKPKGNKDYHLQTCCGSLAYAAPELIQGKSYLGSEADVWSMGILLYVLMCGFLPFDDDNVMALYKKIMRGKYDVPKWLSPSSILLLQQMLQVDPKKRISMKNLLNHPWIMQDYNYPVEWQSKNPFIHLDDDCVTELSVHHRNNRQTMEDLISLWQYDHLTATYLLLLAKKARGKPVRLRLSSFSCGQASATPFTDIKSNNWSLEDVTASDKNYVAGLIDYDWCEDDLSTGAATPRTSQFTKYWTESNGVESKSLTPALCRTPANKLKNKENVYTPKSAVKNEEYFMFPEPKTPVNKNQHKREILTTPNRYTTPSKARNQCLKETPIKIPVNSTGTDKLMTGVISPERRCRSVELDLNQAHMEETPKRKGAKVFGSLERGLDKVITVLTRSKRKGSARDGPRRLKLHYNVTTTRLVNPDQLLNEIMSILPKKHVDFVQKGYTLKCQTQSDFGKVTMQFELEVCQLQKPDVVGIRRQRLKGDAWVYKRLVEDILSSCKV

## CN(C)C[C@H]1CC[C@H](Nc2c(C(=O)CO)cnc3ccc(-c4cc(Cl)c(O)c(Cl)c4)nc23)CC1 [Example 44, 1-[6-(3,5-Dichloro-4-hydroxyphenyl)-4-{trans-4-[(dimethylamino)methyl]cyclohexyl-amino}-1,5-naphthyridin-3-yl]-2-hydroxyethanone dihydrochloride]
[1]
  IC50: 0.0003 µM
[2]
  IC50: 0.006 µM
[3]
  IC50: 0.0067 µM
[4]
  IC50: 0.0017 µM
[5]
  IC50: 0.0029 µM
[6]
  IC50: 0.2 µM

## CC(=O)c1cnc2ccc(-c3cc(Cl)c(O)c(Cl)c3)nc2c1NC1CCN(C)CC1 [Example 45, 1-{6-(3,5-Dichloro-4-hydroxyphenyl)-4-[(1-methylpiperidin-4-yl)amino]-1,5-naphthyridin-3-yl}ethanone]
[1]
  IC50: 0.0058 µM
[2]
  IC50: 0.096 µM
[3]
  IC50: 0.065 µM
[4]
  IC50: 0.096 µM
[5]
  IC50: 0.086 µM
[6]
  IC50: 0.45 µM

## CC(=O)c1cnc2ccc(-c3cc(F)c(O)c(Cl)c3)nc2c1NC1CCN(C)CC1 [Example 46, 1-{6-(3-Chloro-5-fluoro-4-hydroxyphenyl)-4-[(1-methylpiperidin-4-yl)amino]-1,5-naphthyridin-3-yl}ethanone]
[1]
  IC50: 0.0061 µM
[2]
  IC50: 0.14 µM
[3]
  IC50: 0.098 µM
[4]
  IC50: 0.14 µM
[5]
  IC50: 0.092 µM
[6]
  IC50: 0.53 µM

## CC(=O)c1cnc2ccc(-c3cc(Cl)c(O)c(Cl)c3)nc2c1N[C@H]1CC[C@H](CN2CCOCC2)CC1 [Example 47, 1-[6-(3,5-Dichloro-4-hydroxyphenyl)-4-{[trans-4-(morpholinomethyl)cyclohexyl]amino}-1,5-naphthyridin-3-yl]ethanone]
[1]
  IC50: 0.01 µM
[2]
  IC50: 0.034 µM
[3]
  IC50: 0.02 µM
[4]
  IC50: 0.009 µM
[5]
  IC50: 0.015 µM
[6]
  IC50: 0.16 µM

## CC(=O)c1cnc2ccc(-c3cc(Cl)c(O)c(Cl)c3)nc2c1N[C@H]1CC[C@H](CN(C)CCO)CC1 [Example 48, 1-[6-(3,5-Dichloro-4-hydroxyphenyl)-4-(trans-4-{[(2-hydroxyethyl)(methyl)amino]methyl}-cyclohexylamino)-1,5-naphthyridin-3-yl]ethanone dihydrochloride]
[1]
  IC50: 0.0006 µM
[2]
  IC50: 0.0092 µM
[3]
  IC50: 0.02 µM
[4]
  IC50: 0.0034 µM
[5]
  IC50: 0.0068 µM
[6]
  IC50: 0.57 µM

## CC(=O)c1cnc2ccc(-c3cc(F)c(O)c(Cl)c3)nc2c1N[C@H]1CC[C@H](CN(C)CCO)CC1 [Example 49, 1-[6-(3-Chloro-5-fluoro-4-hydroxyphenyl)-4-(trans-4-{[(2-hydroxyethyl)(methyl)amino]-methyl}cyclohexylamino)-1,5-naphthyridin-3-yl]ethanone dihydrochloride]
[1]
  IC50: 0.001 µM
[2]
  IC50: 0.0087 µM
[3]
  IC50: 0.021 µM
[4]
  IC50: 0.0039 µM
[5]
  IC50: 0.0039 µM
[6]
  IC50: 0.49 µM

## CC(=O)c1cnc2ccc(-c3cc(F)c(O)c(F)c3)nc2c1N[C@H]1CC[C@H](CN(C)C)CC1 [Example 50, 1-[6-(3,5-Difluoro-4-hydroxyphenyl)-4-{trans-4-[(dimethylamino)methyl]cyclohexylamino}-1,5-naphthyridin-3-yl]ethanone dihydrochloride]
[1]
  IC50: 0.0019 µM
[2]
  IC50: 0.017 µM
[3]
  IC50: 0.015 µM
[4]
  IC50: 0.0053 µM
[5]
  IC50: 0.0061 µM
[6]
  IC50: 0.08 µM

## CC(=O)c1cnc2ccc(-c3cc(Cl)c(O)c(Cl)c3)nc2c1Nc1ccc(N2CCC(N(C)C)C2)nc1 (stereo not drawn) [Example 51, 1-[6-(3,5-Dichloro-4-hydroxyphenyl)-4-{6-[3-(dimethylamino)pyrrolidin-1-yl]pyridin-3-ylamino}-1,5-naphthyridin-3-yl]ethanone trihydrochloride]
[1]
  IC50: 0.0082 µM
[2]
  IC50: 0.36 µM
[3]
  IC50: 0.32 µM
[4]
  IC50: 0.32 µM
[5]
  IC50: 0.19 µM
[6]
  IC50: 2.8 µM
